Reference: US7365096B2, “Methods for selectively inhibiting Janus tyrosine kinase 3 (Jak3)” (Board of Regents, The University of Texas System, priority 2002, dated 2008)
Entries after “also recorded” stand apart in the source; their conditions may differ.

Columns and labels:
[1] = system: rat T cell line (Nb2-11c); experiment: Proliferation of rat Nb2-11c T cells, IL-2 (Jak3) versus PRL (Jak2) stimulated; format: cell-based
Protocol: Cell culture and treatment. The rat T-cell line Nb2-11c, originally developed by Dr. Peter Gout (Vancouver, Canada), was grown in RPMI-1640 with 10% fetal calf serum (Intergen, cat. no. 1020-90), 2 mM L-glutamine, 5 mM HEPES, pH 7.3, and penicillin-streptomycin (50 IU/ml and 50 μg/ml, respectively), at 37° C./5% CO2. Freshly explanted normal human T lymphocytes purified by isocentrifugation (Ficoll®; EM Science, Gibbstown, N.J.) were phytohemagglutinin (PHA)-activated for 72 hours as previously described.^23 T lymphocytes were made quiescent by washing and incubating for 24 hours in RPMI-1640 medium containing 1% fetal calf serum before exposure to cytokines. […] The Mannich base 649641P (NC1153) was generously provided by Dr. Jonathan Dimmock College of Pharmacy, University of Saskatchewan, Saskatoon, Saskatchewan, Canada. All cells were then stimulated with 1 nM recombinant human IL-2 (Hoffman-LaRoche, Basel, Switzerland), IL4 or IL7 (PeproTech), or ovine prolactin (PRL) supplied by the National Hormone and Pituitary Program, National Institute of Diabetes, Digestive, and Kidney Disease (Bethesda, Md.), at 37° C. Cell pellets were frozen at −70° C.
Proliferation assays. Quiescent human primary T-cells, YT or rat Nb2-11c T-cells (5.0×10^4/well) were plated in flat-bottom, 96-well microtiter plates in 200 μl of quiescent media in the absence or presence of 1 nM IL-2, -4, -7 (PeproTech, Rock Hill, N.J.), or PRL. Next, cells were treated for 16 hours with the Mannich base drug and then pulsed for 4 hours with [^3H]-thymidine (0.5 μCi/200 μl) and harvested onto fiberglass filters. [^3H]-thymidine incorporation was analyzed by liquid scintillation counting as previously described,^23 or using standard techniques that are well known in the art.
The rat T cell line (Nb2-11c) was chosen because it responds to either PRL/Jak2 or IL-2/Jak3 stimulation.
FIG. 14B through FIG. 39B show the chemical formulas of various Mannich base compounds and others (shown as salts) that were screened for ability to inhibit proliferation in prolactin or IL2 stimulated T-cells. […]

[2] = system: IL2R-α, -β, and -γ chains; experiment: FACS analysis of IL2 receptor expression on PHA-activated T-cell blasts; format: cell-based, human; settings: 50 μM overnight
Protocol: FIG. 7A is a bar graph showing that proliferation of PHA-activated human T cells was blocked by the indicated NCI agents following stimulation with IL-2. FIG. 7B is a FACS analysis of PHA-activated T-cell blasts that were treated without (heavy line) or with 50 μM NC1153 (light line) overnight and stained for IL2R-α, -β, and -γchains. FIG. 7C is a graph of cell growth inhibition over a range of NC1153 concentration in non-Jak3 expressing Jurkat cells (black diamonds) and in Jak3 containing PHA activated T-cells (open boxes). FIG. 7D is a graph of cell growth inhibition versus NC1153 concentration in T-cells stimulated by cytokines that utilize Jak3 and the common gamma chain.
Also shown (FIG. 7B) is a graph showing the FACS analysis of PHA-activated T-cell blasts that were treated without (heavy line) or with 50 μM NC1153 (light line) overnight and stained for IL2R-α, -β, and -γ chains. The dashed lines indicate cells pretreated with NC1153. […] Data are normalized as percent of vehicle control. NC1153 inhibits growth of cells by cytokines that utilize Jak3 and the common gamma chain (FIG. 7D). […] Thus, the inhibitory effects of NC1153 are not limited to cells stimulated only by IL-2. Instead, the entire family of cytokines which use Jak3 are blocked by NC1153.

CN(C)CC1CCCCCCCCCC(CN(C)C)C1=O (mixture of isomers) [649641P (NC1153)]
effectiveness for inhibiting Jak3- versus Jak2-dependent proliferation ([1]; 1 nM IL-2 vs 1 nM PRL, 0-100 μM, 16 hours): 3 fold | selective inhibition of IL-2/Jak3-dependent versus PRL/Jak2-dependent T-cell proliferation ([1]; IL-2 vs PRL stimulated): selectively inhibits γc/Jak3-dependent but not PRL/Jak2-dependent cell proliferation | inhibition of cell proliferation in response to IL-2, IL-4 and IL-7 ([1]; as printed: Nb2-11c cells): equally effective | IL2 receptor expression [2]: failed to affect IL2 receptor expression; also recorded: unaffected
